# Data taken from ChEMBL document CHEMBL2417434, “The first synthesis of natural disulfide bruguiesulfurol and biological evaluation of its derivatives as a novel scaffold for PTP1B inhibitors” (Bioorg Med Chem Lett, 2013).
# How the values were obtained:
# [1] = target: T1, Tyrosine-protein phosphatase non-receptor type 1 (Homo sapiens, UniProt P18031); test: Inhibition of PTP1B (unknown origin)
# T1 sequence (P18031 whole entry): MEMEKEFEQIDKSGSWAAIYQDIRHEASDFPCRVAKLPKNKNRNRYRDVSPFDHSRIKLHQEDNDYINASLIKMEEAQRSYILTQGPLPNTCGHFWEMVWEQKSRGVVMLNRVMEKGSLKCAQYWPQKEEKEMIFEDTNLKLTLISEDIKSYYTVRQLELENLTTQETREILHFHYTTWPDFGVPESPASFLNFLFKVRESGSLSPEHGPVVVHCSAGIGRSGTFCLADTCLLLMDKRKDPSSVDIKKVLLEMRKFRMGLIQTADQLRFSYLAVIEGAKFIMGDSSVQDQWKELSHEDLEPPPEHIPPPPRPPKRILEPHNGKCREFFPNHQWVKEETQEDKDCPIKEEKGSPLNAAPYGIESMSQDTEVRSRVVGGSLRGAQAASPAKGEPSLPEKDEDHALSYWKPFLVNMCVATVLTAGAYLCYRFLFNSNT
# [2] = target: Receptor-type tyrosine-protein phosphatase F (Homo sapiens, UniProt P10586); test: Inhibition of LAR (unknown origin)
# Receptor-type tyrosine-protein phosphatase F, sequence (P10586 whole entry): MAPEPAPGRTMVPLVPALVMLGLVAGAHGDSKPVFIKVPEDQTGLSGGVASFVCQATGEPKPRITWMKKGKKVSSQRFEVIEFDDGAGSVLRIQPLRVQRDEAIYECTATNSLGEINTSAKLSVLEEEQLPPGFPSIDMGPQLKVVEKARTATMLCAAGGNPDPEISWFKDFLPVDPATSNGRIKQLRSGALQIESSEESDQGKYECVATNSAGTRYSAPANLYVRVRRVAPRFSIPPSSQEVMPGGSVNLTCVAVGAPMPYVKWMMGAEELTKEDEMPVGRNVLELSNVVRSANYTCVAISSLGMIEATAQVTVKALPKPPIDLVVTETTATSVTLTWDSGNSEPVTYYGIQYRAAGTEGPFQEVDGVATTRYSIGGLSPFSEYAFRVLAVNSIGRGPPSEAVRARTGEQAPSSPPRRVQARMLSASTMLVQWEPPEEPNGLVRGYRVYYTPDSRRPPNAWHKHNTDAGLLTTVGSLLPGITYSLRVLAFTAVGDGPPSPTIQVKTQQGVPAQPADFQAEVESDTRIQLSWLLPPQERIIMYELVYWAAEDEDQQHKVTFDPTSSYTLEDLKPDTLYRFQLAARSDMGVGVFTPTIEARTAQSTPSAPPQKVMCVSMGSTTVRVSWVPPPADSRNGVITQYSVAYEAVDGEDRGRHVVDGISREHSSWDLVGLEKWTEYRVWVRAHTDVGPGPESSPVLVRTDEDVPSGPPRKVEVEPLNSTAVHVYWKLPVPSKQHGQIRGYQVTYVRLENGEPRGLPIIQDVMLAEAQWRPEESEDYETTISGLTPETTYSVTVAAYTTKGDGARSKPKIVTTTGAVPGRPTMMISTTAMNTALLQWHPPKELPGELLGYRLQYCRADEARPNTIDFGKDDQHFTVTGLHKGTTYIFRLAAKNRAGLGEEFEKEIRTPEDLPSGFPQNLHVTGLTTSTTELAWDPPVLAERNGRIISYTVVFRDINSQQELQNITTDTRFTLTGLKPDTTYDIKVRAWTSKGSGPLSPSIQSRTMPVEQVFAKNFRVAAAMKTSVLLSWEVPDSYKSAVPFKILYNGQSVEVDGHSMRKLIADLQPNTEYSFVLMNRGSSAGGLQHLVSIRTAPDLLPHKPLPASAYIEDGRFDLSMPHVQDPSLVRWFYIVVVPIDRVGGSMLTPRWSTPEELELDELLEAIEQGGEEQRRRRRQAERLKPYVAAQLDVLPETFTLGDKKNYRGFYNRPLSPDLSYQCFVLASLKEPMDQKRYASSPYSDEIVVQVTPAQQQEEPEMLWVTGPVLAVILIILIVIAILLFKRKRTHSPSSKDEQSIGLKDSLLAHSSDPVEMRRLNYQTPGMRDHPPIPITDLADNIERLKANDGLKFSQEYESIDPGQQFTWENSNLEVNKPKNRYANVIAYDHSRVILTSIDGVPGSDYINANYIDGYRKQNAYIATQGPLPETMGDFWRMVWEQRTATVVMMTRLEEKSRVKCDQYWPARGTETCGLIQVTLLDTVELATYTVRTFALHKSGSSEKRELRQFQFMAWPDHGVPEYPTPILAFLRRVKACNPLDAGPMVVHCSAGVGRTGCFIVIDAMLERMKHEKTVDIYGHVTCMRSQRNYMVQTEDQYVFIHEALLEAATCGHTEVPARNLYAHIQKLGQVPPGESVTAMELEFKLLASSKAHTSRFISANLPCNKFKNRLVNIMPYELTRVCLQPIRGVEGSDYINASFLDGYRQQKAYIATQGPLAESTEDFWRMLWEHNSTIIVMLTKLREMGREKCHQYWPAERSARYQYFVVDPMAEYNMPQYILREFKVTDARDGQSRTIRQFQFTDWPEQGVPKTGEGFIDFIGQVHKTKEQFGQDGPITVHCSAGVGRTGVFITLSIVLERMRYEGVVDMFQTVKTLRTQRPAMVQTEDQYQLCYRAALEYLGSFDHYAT
# [3] = target: Tyrosine-protein phosphatase non-receptor type 6 (Homo sapiens, UniProt P29350); test: Inhibition of SHP1 (unknown origin)
# Tyrosine-protein phosphatase non-receptor type 6, sequence (P29350 whole entry): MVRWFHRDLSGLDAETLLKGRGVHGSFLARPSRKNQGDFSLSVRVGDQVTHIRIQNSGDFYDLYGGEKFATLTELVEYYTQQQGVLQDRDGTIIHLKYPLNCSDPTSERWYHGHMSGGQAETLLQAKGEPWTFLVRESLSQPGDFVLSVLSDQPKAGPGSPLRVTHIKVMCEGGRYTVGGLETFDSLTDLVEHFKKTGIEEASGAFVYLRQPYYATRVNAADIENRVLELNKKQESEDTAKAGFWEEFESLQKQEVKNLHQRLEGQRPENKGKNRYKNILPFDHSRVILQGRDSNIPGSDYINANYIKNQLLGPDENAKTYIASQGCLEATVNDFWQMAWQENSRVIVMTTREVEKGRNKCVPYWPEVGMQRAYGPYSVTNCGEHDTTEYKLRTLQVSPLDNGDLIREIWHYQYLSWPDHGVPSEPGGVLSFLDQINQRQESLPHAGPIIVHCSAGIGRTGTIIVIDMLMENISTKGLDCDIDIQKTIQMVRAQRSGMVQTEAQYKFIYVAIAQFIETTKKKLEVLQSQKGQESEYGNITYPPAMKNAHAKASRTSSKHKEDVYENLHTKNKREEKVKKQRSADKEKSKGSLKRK
# [4] = target: T2, Tyrosine-protein phosphatase non-receptor type 11 (Homo sapiens, UniProt Q06124); test: Inhibition of SHP2 (unknown origin)
# T2 sequence (Q06124 whole entry): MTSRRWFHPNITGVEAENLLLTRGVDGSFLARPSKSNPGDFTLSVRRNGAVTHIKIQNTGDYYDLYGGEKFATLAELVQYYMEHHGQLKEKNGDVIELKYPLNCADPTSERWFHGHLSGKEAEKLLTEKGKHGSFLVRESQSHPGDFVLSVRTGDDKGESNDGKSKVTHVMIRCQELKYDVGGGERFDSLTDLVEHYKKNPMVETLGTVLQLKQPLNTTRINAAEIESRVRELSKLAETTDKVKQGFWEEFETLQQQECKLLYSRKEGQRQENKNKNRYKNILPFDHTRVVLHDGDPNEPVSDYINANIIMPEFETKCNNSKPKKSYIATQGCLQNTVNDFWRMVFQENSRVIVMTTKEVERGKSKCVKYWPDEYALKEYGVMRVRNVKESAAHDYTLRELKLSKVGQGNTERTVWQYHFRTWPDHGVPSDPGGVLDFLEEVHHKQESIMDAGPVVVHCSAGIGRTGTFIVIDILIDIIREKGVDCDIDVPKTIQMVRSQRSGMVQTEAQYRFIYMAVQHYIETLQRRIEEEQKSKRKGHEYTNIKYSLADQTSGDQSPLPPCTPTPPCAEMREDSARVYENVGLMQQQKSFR
# [5] = target: T3, Tyrosine-protein phosphatase non-receptor type 2 (Homo sapiens, UniProt P17706); test: Inhibition of TCPTP (unknown origin)
# T3 sequence (P17706 whole entry): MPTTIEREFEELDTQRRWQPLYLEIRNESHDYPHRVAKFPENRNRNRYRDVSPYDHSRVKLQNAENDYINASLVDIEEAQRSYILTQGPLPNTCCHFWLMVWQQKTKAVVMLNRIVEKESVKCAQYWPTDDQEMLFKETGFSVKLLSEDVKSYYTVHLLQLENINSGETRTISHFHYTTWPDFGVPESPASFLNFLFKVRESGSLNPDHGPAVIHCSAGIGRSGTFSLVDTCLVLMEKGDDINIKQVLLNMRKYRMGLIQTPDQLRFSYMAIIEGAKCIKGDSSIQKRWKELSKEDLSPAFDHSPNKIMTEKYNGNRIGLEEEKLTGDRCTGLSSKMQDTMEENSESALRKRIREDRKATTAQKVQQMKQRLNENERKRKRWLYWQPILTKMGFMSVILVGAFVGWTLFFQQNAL
Compound,IC50 [1],IC50 [2],IC50 [3],IC50 [4],IC50 ([1]; read-out: IC50),IC50 ([5]; read-out: IC50),further results
O=C(OC1CSS(=O)(=O)C1)c1cc(Br)ccc1Br (configuration not stated),Not Active,,,,,,
O=C(OC1CSS(=O)(=O)C1)c1cc2ccccc2[nH]1 (configuration not stated),Not Active,,,,,,
O=C(Cc1ccc(Br)cc1)OC1CSS(=O)(=O)C1 (configuration not stated),Not Active,,,,,,
O=C(OC1CS[S+]([O-])C1)c1ccc(Br)cc1 (configuration not stated),Not Active,,,,,,
O=C(OC1CS[S+]([O-])C1)c1ccccc1Br (configuration not stated),Not Active,,,,,,
O=C(OC1CS[S+]([O-])C1)c1cccc(Br)c1 (configuration not stated),,Not Active,Not Active,Not Active,28 µM,,IC50 [5]: Not Active
O=C(OC1CS[S+]([O-])C1)c1ccc(F)cc1 (configuration not stated),Not Active,,,,,,
O=C(OC1CS[S+]([O-])C1)c1ccc(I)cc1 (configuration not stated),,Not Active,Not Active,Not Active,22.4 µM,33 µM,
O=C(OC1CS[S+]([O-])C1)c1ccccc1I (configuration not stated),,Not Active,Not Active,Not Active,29.7 µM,36.8 µM,
O=C(OC1CS[S+]([O-])C1)c1cc(Br)ccc1Br (configuration not stated),,Not Active,Not Active,Not Active,4.54 µM,11.1 µM,
O=C(OC1CS[S+]([O-])C1)c1cc2ccccc2[nH]1 (configuration not stated),,Not Active,Not Active,Not Active,31.4 µM,52.6 µM,
O=C(Cc1ccc(Br)cc1)OC1CS[S+]([O-])C1 (configuration not stated),,Not Active,Not Active,Not Active,45 µM,,IC50 [5]: Not Active
O=C(OC1CSSC1)c1ccc(Cl)cc1,Not Active,,,,,,
O=C(OC1CSSC1)c1ccc(I)cc1,,Not Active,Not Active,Not Active,33.4 µM,34.1 µM,
O=C(OC1CSSC1)c1ccccc1I,,,Not Active,Not Active,48.2 µM,42.1 µM,IC50 ([2]; read-out: IC50): 20.4 µM
O=C(OC1CSSC1)c1cc(Br)ccc1Br,,Not Active,,Not Active,25.6 µM,20.4 µM,IC50 ([3]; read-out: IC50): 10.9 µM
NS(=O)(=O)c1ccc(C(=O)OC2CSSC2)cc1,,Not Active,,,24.9 µM,40.7 µM,IC50 ([3]; read-out: IC50): 14 µM; IC50 ([4]; read-out: IC50): 13.4 µM
O=C(OC1CSSC1)c1ccc([N+](=O)[O-])cc1,,Not Active,Not Active,Not Active,22.6 µM,37.4 µM,
O=C(Cc1ccc(Br)cc1)OC1CSSC1,Not Active,,,,,,
O=C(CCc1ccc(Br)cc1)OC1CSSC1,Not Active,,,,,,

Compound,IC50 [1],IC50 [2],IC50 [3],IC50 [4],IC50 ([1]; read-out: IC50),IC50 ([5]; read-out: IC50),further results
O=C(OC1CSSC1)c1cc([N+](=O)[O-])cc([N+](=O)[O-])c1,,Not Active,,,14.8 µM,27.3 µM,IC50 ([3]; read-out: IC50): 24.4 µM; IC50 ([4]; read-out: IC50): 13.8 µM
O=C(OC1CSSC1)c1ccccc1,Not Active,,,,,,
COc1ccc(C(=O)OC2CSSC2)c(OC)c1,Not Active,,,,,,
CC(=O)OC1CSSC1,Not Active,,,,,,
O=C(OC1CSSC1)c1ccoc1,,Not Active,,,78.2 µM,,IC50 ([3]; read-out: IC50): 17.9 µM; IC50 ([4]; read-out: IC50): 21.4 µM; IC50 [5]: Not Active
O=C(OC1CSSC1)c1ccco1,,Not Active,,,35.2 µM,75.4 µM,IC50 ([3]; read-out: IC50): 15.8 µM; IC50 ([4]; read-out: IC50): 22.3 µM
O=C(OC1CSSC1)c1ccc[nH]1,Not Active,,,,,,
O=C(OC1CSSC1)c1cc2ccccc2[nH]1,,Not Active,Not Active,Not Active,24.1 µM,35.8 µM,
O=C(OC1CSS(=O)(=O)C1)c1ccc(Br)cc1 (configuration not stated),Not Active,,,,,,
O=C(OC1CSS(=O)(=O)C1)c1ccccc1Br (configuration not stated),Not Active,,,,,,
O=C(OC1CSS(=O)(=O)C1)c1cccc(Br)c1 (configuration not stated),,Not Active,Not Active,Not Active,29 µM,,IC50 [5]: Not Active
O=C(OC1CSS(=O)(=O)C1)c1ccc(F)cc1 (configuration not stated),Not Active,,,,,,
O=C(OC1CSS(=O)(=O)C1)c1ccc(I)cc1 (configuration not stated),Not Active,,,,,,
O=C(OC1CSS(=O)(=O)C1)c1ccccc1I (configuration not stated),Not Active,,,,,,
O=C(OC1CSSC1)c1ccc(Br)cc1,,,Not Active,Not Active,11 µM,34 µM,IC50 ([2]; read-out: IC50): 34.6 µM
O=C(OC1CSSC1)c1ccccc1Br,Not Active,,,,,,
O=C(OC1CSSC1)c1cccc(Br)c1,Not Active,,,,,,
O=C(OC1CSSC1)c1ccc(F)cc1,Not Active,,,,,,
O=S1(=O)C[C@H](O)CS1 [BRUGUIESULFUROL],,,,,17.5 µM,,
